Source: PMC6050274, “Buparlisib is a brain penetrable pan-PI3K inhibitor” (Scientific Reports, 2018)

Key:
[1] = Brain and tissue penetration after i.v. administration in wildtype and P-gp/BCRP knockout mice; assay type: in vivo, FVB mice; settings: 2 mg/kg i.v.
Method: To study whether P-gp and BCRP attenuate buparlisib brain penetration in vivo, we measured the brain and plasma concentration in wildtype (WT), Abcg2^−/−, Abcb1a/b^−/− and Abcb1a/b; Abcg2^−/− mice 1 hour after i.v. administration of 2 mg/kg buparlisib.
Figure 2 The impact of P-gp and BCRP on the brain and tissue penetration of buparlisib. Buparlisib was administered intravenously to wildtype, Abcg2^−/−, Abcb1a/b^−/− and Abcb1a/b;Abcg2^−/− mice at a dose of 2 mg/kg. One hour after injection, blood and tissues were collected for LC-MS/MS analysis. […] All data are represented as mean ± SD (n = 4).
The pharmacokinetics of buparlisib were analysed in WT, Abcg2^−/−, Abcb1a/b^−/− and Abcb1a/b; Abcg2^−/− FVB mice. All knockout mice strains have been developed within our institute[41]–[43]. For i.v. administration, buparlisib was dissolved in DMSO and injected at a dose of 2 mg/kg. For oral administration, buparlisib was formulated in DMSO:Cremophor EL:water (1:1:8 v/v/v) and administered at 1, 2 or 5 mg/kg as indicated. Tail vein bleeding was used to collect blood at intermediate time points, whereas at the last time point blood was drawn by cardiac puncture and various tissue were collected. Plasma was obtained from whole blood by centrifugation (5 min, 5,000 rpm, 4 °C). After weighing, tissues were homogenized using a FastPrep®-24 (MP-Biomedicals, NY) in 1% (w/v) bovine serum albumin in water. Buparlisib was extracted from plasma and tissue homogenate by liquid-liquid extraction with ethyl acetate using AZD8055 as an internal standard.
Buparlisib was measured in samples from in vitro transport assays and in vivo pharmacokinetic studies using an LC-MS/MS system comprised of an UltiMate 3000 LC Systems (Dionex, Sunnyvale, CA) and an API 4000 mass spectrometer (Sciex, Framingham, MA). Samples were run through a Securityguard C18 pre-column (Phenomenex, Utrecht, The Netherlands) prior to separation on a ZORBAX Extend-C18 column (Agilent, Santa Clara, CA). Elution was done using a in a 5 minute gradient from 20% to 95% B (mobile phase A was 0.1% HCOOH in water (v/v) and mobile phase B was methanol). 95% B was maintained for 3 min followed by re-equilibration at 20% B. Multiple reaction monitoring was performed at 411.3/367.2 (buparlisib) and 418.2/138.4 (AZD8055). Analyst® 1.6.2 software (AB Sciex; Foster City, CA) was used for system control and data analysis.
As described in detail before, CETA results were analysed with the General linear model repeated measures procedure of SPSS (v22; SPSS Inc, Chicago, IL)[25]. PK solver was used to determine pharmacokinetic parameters. The standard error of the oral bioavailability was calculated using the formula below: SEF=F(SEAUCp.o./AUCp.o.)^2+(SEAUCi.v./AUCi.v.)^2 Buparlisib concentrations in WT and transporter knockout mice in vivo were compared using one-way analysis of variance followed by post hoc Bonferroni tests. Statistical differences between the buparlisib PK parameters in male and female mice were calculated as Bonferroni corrected p-values using multiple Student’s t-tests. Differences were considered statistically significant when p < 0.05.

[2] = target: T1, murine BCRP (Abcg2/Bcrp1) (Mus musculus, UniProt Q7TMS5); assay: Concentration equilibrium transport assay (CETA), MDCK-Bcrp1; assay type: in vitro ADME; settings: MDCK-Bcrp1, 100 nM
T1 construct: expressed in transfected cells; host or cells: MDCK (MDCK-Bcrp1)
T1 sequence (Q7TMS5 1-657): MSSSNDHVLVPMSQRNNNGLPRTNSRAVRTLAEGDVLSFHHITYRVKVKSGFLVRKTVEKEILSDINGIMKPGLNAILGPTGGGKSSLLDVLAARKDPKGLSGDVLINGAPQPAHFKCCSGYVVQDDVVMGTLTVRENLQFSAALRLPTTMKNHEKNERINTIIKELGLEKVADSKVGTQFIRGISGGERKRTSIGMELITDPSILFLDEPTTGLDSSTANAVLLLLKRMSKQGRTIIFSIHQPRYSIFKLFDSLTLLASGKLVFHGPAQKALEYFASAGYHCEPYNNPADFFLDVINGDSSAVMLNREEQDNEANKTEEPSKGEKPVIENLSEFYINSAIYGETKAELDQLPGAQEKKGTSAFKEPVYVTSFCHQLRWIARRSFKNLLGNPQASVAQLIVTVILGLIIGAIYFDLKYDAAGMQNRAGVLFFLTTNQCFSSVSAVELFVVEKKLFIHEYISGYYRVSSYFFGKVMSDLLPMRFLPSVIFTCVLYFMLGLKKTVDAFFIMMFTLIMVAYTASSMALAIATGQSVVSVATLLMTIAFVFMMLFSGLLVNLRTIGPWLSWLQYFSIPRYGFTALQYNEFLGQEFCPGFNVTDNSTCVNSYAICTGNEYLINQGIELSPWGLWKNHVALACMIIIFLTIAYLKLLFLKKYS
From the text: Figure 1 Analysis of buparlisib substrate affinity for ABC transporters using in vitro transport assays. (A) The chemical structure of buparlisib. (B) A conventional transport assay (CTA) using LLC-PK1 cells in presence of zosuquidar to block endogenous (porcine) P-gp activity. […] (C) Concentration equilibrium transport assays (CETAs) using MDCK or LLC cells that overexpress murine BCRP, (Bcrp1), human BCRP, murine P-gp (Mdr1a) or human P-gp (MDR1). […] The P-gp inhibitor zosuquidar was used in all MDCK cell lines to inhibit endogenous P-gp activity and in LLC cell lines to validate possible P-gp-mediated translocations. […]
Conventional bidirectional transport assays (CTAs) and concentration equilibrium transport assays (CETAs) were performed as described previously. […] Transwell leakiness was determined as Carboxyl-[^14C]-inulin translocation exceeding 1.5% per hour and these wells were excluded from the analysis. […]
As described in detail before, CETA results were analysed with the General linear model repeated measures procedure of SPSS (v22; SPSS Inc, Chicago, IL)[25]. […] The standard error of the oral bioavailability was calculated using the formula below: SEF=F(SEAUCp.o./AUCp.o.)^2+(SEAUCi.v./AUCi.v.)^2 Buparlisib concentrations in WT and transporter knockout mice in vivo were compared using one-way analysis of variance followed by post hoc Bonferroni tests. […]

Question: For `Nc1cc(C(F)(F)F)c(-c2cc(N3CCOCC3)nc(N3CCOCC3)n2)cn1` [buparlisib], which “brain concentration compared with liver, kidney and spleen concentrations” value ([1]; 1 hour) is on record?
Answer: The value was “slightly higher”.

Question: What about the “kidney level compared with concurrent plasma level” value ([1]; 1 hour) of the same molecule?
Answer: Its value is “lower”.

Question: And the “liver level compared with concurrent plasma level” value ([1]; 1 hour)?
Answer: Its value is “equal”.

Question: And the “spleen level compared with concurrent plasma level” value ([1]; 1 hour)?
Answer: The value was “lower”.

Question: What about the “differences among mouse strains in plasma and brain concentrations” value ([1]; 1 hour, WT vs transporter knockout mice) of the same molecule?
Answer: Its value is “No differences”.

Question: And the Kp at 1 h ([1]; FVB, mouse, brain/plasma, intravenous, all strains (WT, Abcg2-/-, Abcb1a/b-/-, Abcb1a/b;Abcg2-/-), read-out: brain-plasma ratio)?
Answer: The Kp at 1 h was 1.5 to 2.

Question: And the “substrate of murine BCRP” value [2]?
Answer: The value was “very weak substrate”.
